In ChEMBL document CHEMBL1201862, “PubChem BioAssay data set” (2004):
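Cultured in 96-well plates, cells were exposed to test compound for 48 hours across five concentrations. The concentration for 50% growth inhibition is given as GI50.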 The source made the active and inactive calls. Cut-off read from the data, not from the text of the source: active = GI50 up to about 1.1 µM and inactive = higher.

Legend:
Assay in all cases: NCI anticancer screen, dose series, 48 h
U-251 = tested on: U-251
DLD-1 = tested on: DLD-1
KM12 = tested on: KM12
DMS-114 = tested on: DMS-114
CAKI-1 = tested on: CAKI-1
RPMI-8226 = tested on: RPMI-8226
EKVX = tested on: EKVX
CCRF-CEM = tested on: CCRF-CEM
HOP-92 = tested on: HOP-92
OVCAR-4 = tested on: OVCAR-4
UO-31 = tested on: UO-31
A549 = tested on: A549
ACHN = tested on: ACHN
HL-60 = tested on: HL-60
NCI-H460 = tested on: NCI-H460
KM-20L2 = tested on: KM-20L2
LXFL 529 = tested on: LXFL 529
IGROV-1 = tested on: IGROV-1
M14 = tested on: M14
SNB-75 = tested on: SNB-75
OVCAR-3 = tested on: OVCAR-3
OVCAR-5 = tested on: OVCAR-5
K562 = tested on: K562
HT-29 = tested on: HT-29
UACC-257 = tested on: UACC-257
A498 = tested on: A498
RXF 393 = tested on: RXF 393
M19-MEL = tested on: M19-MEL
UACC-62 = tested on: UACC-62
SF-539 = tested on: SF-539
HOP-18 = tested on: HOP-18
MOLT-4 = tested on: MOLT-4
SK-MEL-5 = tested on: SK-MEL-5
TK-10 = tested on: TK-10
SN12C = tested on: SN12C
NCI-H23 = tested on: NCI-H23
LOX IMVI = tested on: LOX IMVI
SNB-19 = tested on: SNB-19
SW-620 = tested on: SW-620
786-0 = tested on: 786-0
XF498 = tested on: XF498
HCT-15 = tested on: HCT-15
HCC 2998 = tested on: HCC 2998
NCI-H522 = tested on: NCI-H522
OVCAR-8 = tested on: OVCAR-8
SK-MEL-2 = tested on: SK-MEL-2
COLO 205 = tested on: COLO 205
Malme-3M = tested on: Malme-3M
SR = tested on: SR
SF-295 = tested on: SF-295
HOP-62 = tested on: HOP-62
SNB-78 = tested on: SNB-78
SK-MEL-28 = tested on: SK-MEL-28
DMS-273 = tested on: DMS-273
HCT-116 = tested on: HCT-116
SK-OV-3 = tested on: SK-OV-3
NCI-H226 = tested on: NCI-H226
SF-268 = tested on: SF-268

C[C@@]12CCCc3coc(c31)C(=O)c1cc3c(cc12)C(=O)C=CC3=O [XESTOQUINONE]
GI50 (U-251): 31.3 µM (inactive)
GI50 (DLD-1): 2.54 µM (inactive)
GI50 (KM12): 21.7 µM (inactive)
GI50 (DMS-114): 18.5 µM (inactive)
GI50 (CAKI-1): 14.9 µM (inactive)
GI50 (RPMI-8226): 5.98 µM (inactive)
GI50 (EKVX): 18.8 µM (inactive)
GI50 (CCRF-CEM): 2.23 µM (inactive)
GI50 (HOP-92): 4.52 µM (inactive)
GI50 (OVCAR-4): 15.5 µM (inactive)
GI50 (UO-31): 16.2 µM (inactive)
GI50 (A549): 23.7 µM (inactive)
GI50 (ACHN): 12.8 µM (inactive)
GI50 (HL-60): 2.38 µM (inactive)
GI50 (NCI-H460): 21.8 µM (inactive)
GI50 (KM-20L2): 18.4 µM (inactive)
GI50 (LXFL 529): 15 µM (inactive)
GI50 (IGROV-1): 18.5 µM (inactive)
GI50 (M14): 16.1 µM (inactive)
GI50 (SNB-75): 19.3 µM (inactive)
GI50 (OVCAR-3): 20.2 µM (inactive)
GI50 (OVCAR-5): 22 µM (inactive)
GI50 (K562): 3.61 µM (inactive)
GI50 (HT-29): 22.3 µM (inactive)
GI50 (UACC-257): 16.2 µM (inactive)
GI50 (A498): 56.2 µM (inactive)
GI50 (RXF 393): 14.9 µM (inactive)
GI50 (M19-MEL): 13.8 µM (inactive)
GI50 (UACC-62): 17.4 µM (inactive)
GI50 (SF-539): 15.7 µM (inactive)
GI50 (HOP-18): 15 µM (inactive)
GI50 (MOLT-4): 1.96 µM (inactive)
GI50 (SK-MEL-5): 16.7 µM (inactive)
GI50 (TK-10): 21.2 µM (inactive)
GI50 (SN12C): 20.3 µM (inactive)
GI50 (NCI-H23): 16 µM (inactive)
GI50 (LOX IMVI): 15.8 µM (inactive)
GI50 (SNB-19): 43.8 µM (inactive)
GI50 (SW-620): 5.08 µM (inactive)
GI50 (786-0): 17 µM (inactive)
GI50 (XF498): 16.1 µM (inactive)
GI50 (HCT-15): 17.7 µM
GI50 (HCC 2998): 28.1 µM (inactive)
GI50 (NCI-H522): 7.06 µM (inactive)
GI50 (OVCAR-8): 15.5 µM (inactive)
GI50 (SK-MEL-2): 15.4 µM (inactive)

Cc1ccc(S(=O)OCc2c(C)c(C)c(COS(=O)c3ccc(C)cc3)c(C)c2C)cc1 (stereo unspecified)
GI50 (U-251): > 100 µM (inactive)
GI50 (COLO 205): > 100 µM (inactive)
GI50 (DLD-1): > 100 µM (inactive)
GI50 (KM12): > 100 µM (inactive)
GI50 (DMS-114): > 100 µM (inactive)
GI50 (CAKI-1): > 100 µM (inactive)
GI50 (RPMI-8226): > 100 µM (inactive)
GI50 (EKVX): > 100 µM (inactive)
GI50 (Malme-3M): > 100 µM (inactive)
GI50 (HOP-92): > 100 µM (inactive)
GI50 (OVCAR-4): > 100 µM (inactive)
GI50 (UO-31): > 100 µM (inactive)
GI50 (A549): > 100 µM (inactive)
GI50 (SR): > 100 µM (inactive)
GI50 (ACHN): > 100 µM (inactive)
GI50 (SF-295): > 100 µM (inactive)
GI50 (HL-60): > 100 µM (inactive)
GI50 (NCI-H460): > 100 µM (inactive)
GI50 (HOP-62): > 100 µM (inactive)
GI50 (KM-20L2): > 100 µM (inactive)
GI50 (LXFL 529): > 100 µM (inactive)
GI50 (IGROV-1): > 100 µM (inactive)
GI50 (M14): > 100 µM (inactive)
GI50 (SNB-75): > 100 µM (inactive)
GI50 (OVCAR-3): > 100 µM (inactive)
GI50 (OVCAR-5): > 100 µM (inactive)
GI50 (K562): 65.5 µM (inactive)
GI50 (HT-29): > 100 µM (inactive)
GI50 (UACC-257): > 100 µM (inactive)
GI50 (A498): > 100 µM (inactive)
GI50 (RXF 393): > 100 µM (inactive)
GI50 (SNB-78): 31.6 µM (inactive)
GI50 (M19-MEL): > 100 µM (inactive)
GI50 (UACC-62): > 100 µM (inactive)
GI50 (SF-539): > 100 µM (inactive)
GI50 (HOP-18): > 100 µM (inactive)
GI50 (MOLT-4): > 100 µM (inactive)
GI50 (SK-MEL-5): > 100 µM (inactive)
GI50 (TK-10): > 100 µM (inactive)
GI50 (SK-MEL-28): > 100 µM (inactive)
GI50 (SN12C): > 100 µM (inactive)
GI50 (NCI-H23): > 100 µM (inactive)
GI50 (DMS-273): > 100 µM (inactive)
GI50 (LOX IMVI): > 100 µM (inactive)
GI50 (SNB-19): > 100 µM (inactive)
GI50 (SW-620): > 100 µM (inactive)
GI50 (HCT-116): > 100 µM (inactive)
GI50 (786-0): > 100 µM (inactive)
GI50 (SK-OV-3): > 100 µM (inactive)
GI50 (XF498): > 100 µM (inactive)
GI50 (HCT-15): > 100 µM
GI50 (HCC 2998): > 100 µM (inactive)
GI50 (NCI-H522): > 100 µM (inactive)
GI50 (NCI-H226): > 100 µM (inactive)
GI50 (SF-268): > 100 µM (inactive)
GI50 (OVCAR-8): > 100 µM (inactive)

CC(C)(C)c1cc(Cc2ccc(S(C)(=O)=O)cc2)c(O)c(C(C)(C)C)c1
GI50 (U-251): 15.1 µM (inactive)
GI50 (DLD-1): 17.5 µM (inactive)
GI50 (KM12): 16.4 µM (inactive)
GI50 (DMS-114): 13.5 µM (inactive)
GI50 (CAKI-1): 16.2 µM (inactive)
GI50 (RPMI-8226): 10.8 µM (inactive)
GI50 (EKVX): 15.1 µM (inactive)
GI50 (CCRF-CEM): 12.3 µM (inactive)
GI50 (Malme-3M): 18.1 µM (inactive)
GI50 (OVCAR-4): 14.4 µM (inactive)
GI50 (UO-31): 16.1 µM (inactive)
GI50 (A549): 11.7 µM (inactive)
GI50 (SR): 13.2 µM (inactive)
GI50 (ACHN): 13.7 µM (inactive)
GI50 (SF-295): 13.2 µM (inactive)
GI50 (HL-60): 16.5 µM (inactive)
GI50 (NCI-H460): 16.8 µM (inactive)
GI50 (HOP-62): 16.2 µM (inactive)
GI50 (KM-20L2): 15.7 µM (inactive)
GI50 (LXFL 529): 15.5 µM (inactive)
GI50 (IGROV-1): 14.9 µM (inactive)
GI50 (M14): 15.4 µM (inactive)
GI50 (SNB-75): 14.8 µM (inactive)
GI50 (OVCAR-5): 14.4 µM (inactive)
GI50 (K562): 13.8 µM (inactive)
GI50 (HT-29): 14.7 µM (inactive)
GI50 (UACC-257): 17 µM (inactive)
GI50 (A498): 16.1 µM (inactive)
GI50 (RXF 393): 12.9 µM (inactive)
GI50 (SNB-78): 16.3 µM (inactive)
GI50 (M19-MEL): 17.1 µM (inactive)
GI50 (UACC-62): 13.1 µM (inactive)
GI50 (SF-539): 16.7 µM (inactive)
GI50 (HOP-18): 22.7 µM (inactive)
GI50 (MOLT-4): 12.3 µM (inactive)
GI50 (SK-MEL-5): 16.3 µM (inactive)
GI50 (TK-10): 17.9 µM (inactive)
GI50 (SK-MEL-28): 18.2 µM (inactive)
GI50 (SN12C): 15.3 µM (inactive)
GI50 (NCI-H23): 16.8 µM (inactive)
GI50 (DMS-273): 14.3 µM (inactive)
GI50 (LOX IMVI): 14.6 µM (inactive)
GI50 (SNB-19): 15.5 µM (inactive)
GI50 (SW-620): 17.1 µM (inactive)
GI50 (HCT-116): 14 µM (inactive)
GI50 (786-0): 16.1 µM (inactive)
GI50 (SK-OV-3): 21.7 µM (inactive)
GI50 (XF498): 15.2 µM (inactive)
GI50 (HCT-15): 16.9 µM
GI50 (HCC 2998): 16.2 µM (inactive)
GI50 (NCI-H522): 12.1 µM (inactive)
GI50 (SF-268): 13.2 µM (inactive)
GI50 (OVCAR-8): 14.7 µM (inactive)
GI50 (SK-MEL-2): 16.7 µM (inactive)
